The supplement of paper PMC11451515

Experiments:
NOMO1 = experiment: cell viability relative to DMSO control; higher = less cytotoxic; conditions: 48 h
In short: (§1)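 Before seeding, each leukemia line was adapted for at least four passages in each medium. NOMO1 or SEM cells (500 cells/well) and P12-Ichikawa cells (1000 cells/well) went into 1536-well plates at 5 μl, then received library compounds in DMSO by pin dosing across 11 threefold concentrations, 47 μM to 0.79 nM. Readout was CellTiter-Glo One luminescence after 48 h at 37°C, and viability is given as a per-plate percentage of DMSO wells, with cell-free wells as background.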

P12-Ichikawa = experiment: as above; conditions: 48 h
In short: as §1

Cc1cn2c(-c3cn[nH]c3)cnc2c(Nc2ccc(C(=O)N3CCNCC3)cc2F)n1
cell viability [%]
Conditions	HPLM + 10% dialyzed FBS	RPMI 5 mM glucose + 10% FBS	RPMI 5 mM glucose + 10% dialyzed FBS
NOMO1, 0.000781 µM	109	105	89.2
NOMO1, 0.00234 µM	102	91.6	93
NOMO1, 0.00702 µM	114	101	93.8
NOMO1, 0.0211 µM	107	88	98.1
NOMO1, 0.0632 µM	96.5	88.3	88.7
NOMO1, 0.19 µM	100	88	98.8
NOMO1, 0.569 µM	112	89.2	92.5
NOMO1, 1.71 µM	82.7	85.3	93.1
NOMO1, 5.12 µM	91.2	86.2	80.5
NOMO1, 15.4 µM	70	78.7	62.5
NOMO1, 46.1 µM	34	36.1	29.9
P12-Ichikawa, 0.000781 µM	98.2	105	–
P12-Ichikawa, 0.00234 µM	104	98.3	–
P12-Ichikawa, 0.00702 µM	100	95.7	–
P12-Ichikawa, 0.0211 µM	99.8	91.8	–
P12-Ichikawa, 0.0632 µM	101	103	–
P12-Ichikawa, 0.19 µM	103	96.8	–
P12-Ichikawa, 0.569 µM	104	95.1	–
P12-Ichikawa, 1.71 µM	97.7	96.9	–
P12-Ichikawa, 5.12 µM	91.9	90.4	–
P12-Ichikawa, 15.4 µM	73.4	74.6	–
P12-Ichikawa, 46.1 µM	43.5	–	–
